# Experiments:
# [1] = system: platelets produced from megakaryocytes; assay: Flow cytometry analysis of platelet receptors (CD41, CD42b, CD61, CD49b) on produced platelets; format: cell-based, human; conditions: for proportion of platelets expressing CD42b receptor: compound in megakaryocyte suspension during 2 h perfusion vs without (10 μM ROCK inhibitor; 25 μM GM6001); for proportion of CD41+/CD42b+ platelet: compound during 2 hours of perfusion, without or with previous introduction during culture stage
# Method: (§1) CD34^+ cells were isolated from human umbilical cord blood (UCB) by an immunomagnetic technique (Miltenyi Biotec, Paris, France) as previously reported (see Poirault-Chassac et al, “Notch/Delta4 signaling inhibits human megakaryocytic terminal differentiation”, Blood, vol. 116, no 25, p. 5670-5678, 2010). These blood samples were obtained after informed consent and approval from our Institute Ethics Committee and in accordance with the Declaration of Helsinki. CD34^+ cells were cultured in a humid atmosphere at 37° C. in 5% CO2 in complete medium consisting of Iscove modified Dulbecco medium (IMDM; Gibco Life Technologies, Saint-Aubin, France) supplemented with 15% BIT 9500 serum substitute (Stem Cells Technologies, Grenoble, France), α-monothioglycerol (Sigma-Aldrich, Saint-Quentin Fallavier, France) and liposomes (phosphatidyl-choline, cholesterol and oleic acid; SigmaAldrich). Human recombinant stem cell factor (SCF, 20 ng/mL; Miltenyi Biotec) and thrombopoietin peptide agonist AF13948 (TPO, 50 nM) (see Dunois-Lardé et al, “Exposure of human megakaryocytes to high shear rates accelerates platelet production”, Blood, vol. 114, no 9, p. 1875-1883, 2009) were added once at day 0 to the culture medium followed by addition of 20 nM TPO without SCF at day 5. Mature megakaryocytes are obtained after 12-14 days of culture. Removal of platelets formed during culture and immediately prior to shear exposure was performed by means of a BSA gradient according to the methods reported in (Robert A, Cortin V, Gamier A, Pineault N. Megakaryocyte and platelet production from human cord blood stem cells. Methods Mol Biol. 2012; 788: 219-47). The concentration was then adjusted to 200 000 megakaryocytes/mL. 10 μM ROCK inhibitor (Y27632, Sigma Aldrich, Saint Quentin Fallavier, France) may be added to the culture of megakaryocytes at day 8 of culture. Addition of 10 μM ROCK inhibitor was performed before introducing megakaryocytes suspension into the inlet chamber of the microfluidic device. 6.25 μM nicotinamide (N0636, Sigma Aldrich, Saint Quentin Fallavier, France) was added to the culture of megakaryocytes at day 8 of culture. Addition of 6.25 μM nicotinamide was performed before introducing megakaryocyte suspension into the inlet chamber of the microfluidic device. 20 μM blebbistatin (203390, Calbiochem) was added to the culture of megakaryocytes at day 8 of culture. Addition of 20 μM blebbistatin was performed before introducing megakaryocyte suspension into the inlet chamber of the microfluidic device. 10 μM latrunculin-A (sc202691, Santa Cruz Biotechnology) was added to the culture of megakaryocytes at day 8 of culture. Addition of 10 μM latrunculin-A was performed before introducing megakaryocyte suspension into the inlet chamber of the microfluidic device. 25 μM GM6001 (ab120845, Abcam) was added to the culture of megakaryocytes at day 8 of culture. Addition of 25 μM GM6001 was performed before introducing megakaryocyte suspension into the inlet chamber of the microfluidic device
# Platelet production in the microfluidic device of geometry 2 was compared to control samples, consisting of platelet production from twenty-four hours static condition without the microfluidic chip. Expression of CD41 and CD42 antigens was characterized using a flow cytometer BD Fluorescence Accuri C6 ® (BD Biosciences, Le Pont de Claix, France). Platelets were incubated with fluorescein isothiocyanate (FITC)-conjugated anti-human CD41 (αIIb), R-phycoerythrin (PE)-conjugated anti-human CD42b (GPIbα) (both from Beckman Coulter, Villepinte, France) and FITC-conjugated anti-human activated αIIbb3 (BD Biosciences) during 15 minutes at 22° C., Controls were performed using FITC mouse IgG1 (Beckman Coulter), PE mouse IgG1 (Beckman Coulter). Single color flow cytometry analysis of platelet receptors was performed using the GP screen assay (Biocytex, Marseille, France). […]
# megakaryocytes [2] = assay: Megakaryocyte capture and elongation in the microfluidic device (surface density of captured and elongated megakaryocytes); format: cell-based, human; conditions: for elongation process and beads-on-a-thread structure formation: compound added to megakaryocyte suspension during perfusion (10 μM ROCK inhibitor; 6.25 μM nicotinamide)
# Method: as §1
# All the devices are composed of 16 parallel channels organized in a serpentine shape (FIG. 16). The channels were textured on the straight parts (13.2 cm long) and patterned with the parameters: r=15 μm, H=50 μm, H/h=1.
# The microfluidic chip was set on the stage of an inverted microscope (DMI6000 B, Leica Microsystems GmbH, Germany). A computer assisted motorized stage control was used to record positions along the channel length. We recorded observation field positions and alternated recording images between them along the experiment time. Differential interference contrast objective was used to record movies and images between 10× and 40×. A CMOS high-speed camera (Fastcam SA3, Photron, USA) was used to record images at frequencies from 0.5 to 1500 Hz.
# Surface captured cells were counted manually from the recorded channel images, and cells in suspension were counted with a hematocytometer.
# megakaryocytes [3] = assay: Platelet release in the microfluidic device after two hours of perfusion, hemocytometer counting; format: cell-based, human; conditions: compound in suspension during 2 h perfusion stage, absent during culture stage (10 μM ROCK inhibitor; 6.25 μM nicotinamide)
# Method: CD34^+ cells were isolated from human umbilical cord blood (UCB) by an immunomagnetic technique (Miltenyi Biotec, Paris, France) as previously reported (see Poirault-Chassac et al, “Notch/Delta4 signaling inhibits human megakaryocytic terminal differentiation”, Blood, vol. 116, no 25, p. 5670-5678, 2010). These blood samples were obtained after informed consent and approval from our Institute Ethics Committee and in accordance with the Declaration of Helsinki. CD34^+ cells were cultured in a humid atmosphere at 37° C. in 5% CO2 in complete medium consisting of Iscove modified Dulbecco medium (IMDM; Gibco Life Technologies, Saint-Aubin, France) supplemented with 15% BIT 9500 serum substitute (Stem Cells Technologies, Grenoble, France), α-monothioglycerol (Sigma-Aldrich, Saint-Quentin Fallavier, France) and liposomes (phosphatidyl-choline, cholesterol and oleic acid; SigmaAldrich). Human recombinant stem cell factor (SCF, 20 ng/mL; Miltenyi Biotec) and thrombopoietin peptide agonist AF13948 (TPO, 50 nM) (see Dunois-Lardé et al, “Exposure of human megakaryocytes to high shear rates accelerates platelet production”, Blood, vol. 114, no 9, p. 1875-1883, 2009) were added once at day 0 to the culture medium followed by addition of 20 nM TPO without SCF at day 5. Mature megakaryocytes are obtained after 12-14 days of culture. […]
# [4] = system: platelets produced from megakaryocytes; assay: Activation of produced platelets by TRAP-6 (PAC1 binding, fibrinogen adhesion, tubulin/actin immunofluorescence); format: cell-based, human
# Method: Image acquisition was performed with an Axio Observer microscope (Zeiss) at 40×1.6-fold magnification with a QIClick-F-CLR-12 Digital CCD Camera (Q Imaging). Platelets are adherent to fibrinogen.
# FIG. 8 is a picture showing two colors flow cytometry analysis of platelets receptors with or without activation of the CD41/CD61 receptor by the agonist peptide of the PAR-1 thrombin receptor (TRAP6). (A) Histogram indicates, within the platelet gate, the % of PAC-1/CD42b positive elements before (black bars) or after (gray bars) TRAP-6 activation of platelets produced in the microfluidic device from megakaryocytes suspension in the absence (+/+2 h) or the presence (+/+2 h Ri) of ROCK inhibitor (Ri). […] No Ri was added during the culture stage. n=1.
# Platelet production in the microfluidic device of geometry 2 was compared to control samples, consisting of platelet production from twenty-four hours static condition without the microfluidic chip. Expression of CD41 and CD42 antigens was characterized using a flow cytometer BD Fluorescence Accuri C6 ® (BD Biosciences, Le Pont de Claix, France). […] The number of antigenic sites is determined by converting the fluorescence intensity into corresponding numbers of monoclonal antibodies bound per platelet based on a calibrated bead standard curve. […]
# megakaryocytes [5] = conditions: cited from earlier work; for megakaryocyte ploidy / polyploidization: culture conditions, literature
# [6] = 10 μM ROCK inhibitor in suspension during perfusion, absent during culture stage, count after 35 min of perfusion
# [7] = channels coated at 40 μg·mL^−1, t=35 min, ROCK inhibitor in culture (day 8) and perfusion
Molecule,proportion of platelets expressing CD42b receptor [1],elongation process and beads-on-a-thread structure formation (megakaryocytes [2]),platelet release vs suspension without compound (megakaryocytes [3]),proportion of CD41+/CD42b+ platelet [1],megakaryocyte ploidy / polyploidization (megakaryocytes [5]),also measured
"CNC(=O)[C@H](Cc1c[nH]c2ccccc12)NC(=O)[C@@H](CC(=O)NO)CC(C)C [GM6001, N-[(2R)-2-(hydroxamidocarbonylmethyl)-4-methylpentanoyl]-L-tryptophan methylamide]",higher,–,–,–,–,proportion of platelet CD42b+ ([1]; GM6001 during the culture as well as during the 2 hours perfusion stage): increased
"O=S(=O)(c1cccc2c(O)nccc12)N1CCCNCC1 [ROCK inhibitor, 1-(1-Hydroxy-5-isoquinolinesulfonyl)homopiperazine]",higher,No differences,significant higher platelet release,–,–,"captured megakaryocytes density, ROCK inhibitor added vs not added (megakaryocytes [2]; [6]): 1.42±0.13 fold; elongated megakaryocytes density, ROCK inhibitor added vs not added (megakaryocytes [2]; [6]): 2.98±0.28 fold; characteristics of produced platelets (CD61, CD42b, CD49b receptor density) vs platelets isolated from blood ([1]; ROCK inhibitor during 2 h perfusion, FIG. 6): comparable to those of natural platelets; tubulin conformation of produced platelets upon TRAP-6 stimulation ([4]; ROCK inhibitor during 2 h perfusion, platelets adherent to fibrinogen, FIG. 7): tubulin conformation typical of a transient activation; conformation of the αIIbβ3 receptors (PAC1 binding) upon TRAP-6 stimulation ([4]; platelets from suspension with ROCK inhibitor, FIGS. 8 and 9): activated conformation"
"Cc1ccc2c(c1)C(=O)C1(O)CCN(c3ccccc3)C1=N2 (centres unmarked) [blebbistatin, 1-Phenyl-1,2,3,4-tetrahydro-4-hydroxpyrrolo[2,3-b]-7-methylquinolin-4-one]",–,–,–,higher,–,–
"C/C1=C/C(=O)O[C@@H]2C[C@@H](CC[C@H](C)/C=C\C=C\CC1)O[C@@](O)([C@@H]1CSC(=O)N1)C2 [latrunculin, Latrunculin A]",–,–,–,higher,increase,megakaryocyte apoptosis activation (megakaryocytes [5]; literature (Avanzi et al)): increase
"NC(=O)c1cccnc1 [nicotinamide, pyridine-3-carboxamide]",–,No differences,higher platelet release,higher,increases,–
"VWF: Human von Willebrand factor, used as surface coating of the platelet production channel",–,–,–,–,–,"captured megakaryocytes density, VWF coating vs BSA coating (megakaryocytes [2]; [7]): 5.86±1 fold; elongated megakaryocytes density, VWF coating vs BSA coating (megakaryocytes [2]; [7]): 7.72±1.32 fold"
